In brackets after ≈: the same amount, converted by molar mass.
What was measured:
[1] = 14C radiolabeled drug, beagle dogs, spot-on administration; cited from earlier work
[2] = 20° C. and pH of 7; cited from earlier work
Ctenocephalides felis = test: Spot-on efficacy of Compound A, pyriproxyfen and nitenpyram against Ctenocephalides felis fleas in cats (Example 11); type: in vivo; conditions: Group 5: 2.08% nitenpyram alone in Transcutol, 5.0 mg/kg
Description: The efficacy of three spot-on compositions comprising a combination of Compound A, pyriproxyfen and nitenpyram against Ctenocephalides felis fleas in cats was studied and compared with an untreated control and with a spot-on composition comprising nitenpyram alone. Cats were allocated into five Treatment Groups with 5 cats per group: Group 1—cats were untreated (control); Group 2—cats were treated spot-on solution containing 0.83% (w/v) Compound A, 2.08% (w/v) nitenpyram, and 4.17% (w/v) pyriproxyfen in Transcutol® to deliver doses of 1.0 mg/kg Compound A, 2.5 mg/kg nitenpyram and 5.0 mg/kg pyriproxyfen; Group 3—cats were treated a spot-on solution containing 0.83% (w/v) Compound A, 4.17% (w/v) nitenpyram, and 4.17% (w/v) pyriproxyfen in Transcutol® to deliver doses of 1.0 mg/kg Compound A, 5.0 mg/kg nitenpyram and 5.0 mg/kg pyriproxyfen; Group 4—cats were treated with a spot-on composition containing 0.83% (w/v) Compound A, 8.33% (w/v) nitenpyram and 4.17% (w/v) pyriproxyfen in Transcutol® to deliver doses of 1.0 mg/kg Compound A, 10.0 mg/kg nitenpyram and 5.0 mg/kg pyriproxyfen; Group 5—cats were treated with a spot-on composition containing 2.08% (w/v) nitenpyram alone in Transcutol® to deliver a dose of 5.0 mg/kg body weight.
Treatment was administered once on Day 0. The cats were each infested with approximately 100 C. felis fleas at day −1, on Day 0 approximately 12 hours post treatment and then on Days 1 (approx. 24 hours post treatment), 2, 7, 14, 21, 28 and 35. After each infestation, fleas were removed and counted approximately 12 hours (±3) on Day 0, and then on Days 1, 2, 8, 15, 22, 29 and 36 (24±3 hours after infestation).

SMILES	persistently detected in the whole skin after treatment [1]	solubility in water [2]	% Reduction (Ctenocephalides felis; Day 0 (12 h))	% Reduction (Ctenocephalides felis; Day 1 (24 h))	% Reduction (Ctenocephalides felis; Day 2 (24 h))	% Reduction (Ctenocephalides felis; Day 8 (24 h))	% Reduction (Ctenocephalides felis; Day 15 (24 h))	% Reduction (Ctenocephalides felis; Day 22 (24 h))
N#Cc1nn(-c2c(Cl)cc(C(F)(F)F)cc2Cl)c(N)c1[S+]([O-])C(F)(F)F (centres unmarked) [fipronil]	up to 56 days							
CCN(Cc1ccc(Cl)nc1)/C(=C/[N+](=O)[O-])NC [nitenpyram]		840 mg/mL (≈ 3100 mM)	99.44%	99.79%	100.00%	100.00%	96.76%	93.63%
